Reference: BindingDB's records for doi:10.1021/jm00003a020 (University of Washington, 1995)

Assay: Inhibitory concentration was determined against delta-opioid receptor using [3H]- DPDPE radioligand
Work on `Oc1ccc2c3c1O[C@H]1[C@H](OCc4ccccc4CN=C=S)CC[C@@]4(O)C(C2)N(CC2CC2)CCC314` (stereo partly drawn) [4-cyclopropylmethyl-14-(2-isothiocyanatomethylbenzyloxy)-(1S,13R,14R,17S)-12-oxa-4-azapentacyclo[9.6.1.01,13.05,17.07,18]octadeca-7,9,11(18)-triene-10,17-diol(o-CH2NCS)] yielded an IC50 of 22 nM.
With `Oc1ccc2c3c1O[C@H]1[C@H](OCc4ccccc4N=C=S)CC[C@@]4(O)C(C2)N(CC2CC2)CCC314` (stereo partly drawn) [4-cyclopropylmethyl-14-(2-isothiocyanatobenzyloxy)-(13R,14R,17S)-12-oxa-4-azapentacyclo[9.6.1.01,13.05,17.07,18]octadeca-7,9,11(18)-triene-10,17-diol(o-NCS)] the IC50 was 1.8 nM.
Compound `Oc1ccc2c3c1O[C@H]1[C@H](OCc4cccc(N=C=S)c4)CC[C@@]4(O)C(C2)N(CC2CC2)CCC314` (stereo partly drawn) [4-cyclopropylmethyl-14-(3-isothiocyanatobenzyloxy)-(1S,13R,14R,17S)-12-oxa-4-azapentacyclo[9.6.1.01,13.05,17.07,18]octadeca-7,9,11(18)-triene-10,17-diol(m-NCS)] has an IC50 of 6.5 nM.
Compound `Oc1ccc2c3c1O[C@H]1[C@H](OCc4ccc(N=C=S)cc4)CC[C@@]4(O)C(C2)N(CC2CC2)CCC314` (stereo partly drawn) [4-cyclopropylmethyl-14-(4-isothiocyanatobenzyloxy)-(1S,13R,14R,17S)-12-oxa-4-azapentacyclo[9.6.1.01,13.05,17.07,18]octadeca-7,9,11(18)-triene-10,17-diol(p-NCS)] has an IC50 of 35 nM.
With `Oc1ccc2c3c1O[C@H]1[C@H](OCc4cccc(CN=C=S)c4)CC[C@@]4(O)C(C2)N(CC2CC2)CCC314` (stereo partly drawn) [4-cyclopropylmethyl-14-(3-isothiocyanatomethylbenzyloxy)-(1S,13R,14R,17S)-12-oxa-4-azapentacyclo[9.6.1.01,13.05,17.07,18]octadeca-7,9,11(18)-triene-10,17-diol(m-CH2NCS)] the IC50 was 12 nM.
